Data as given in US11738007B2, “Treatment of glaucoma using endothelin receptor antagonists” (Perfuse Therapeutics, Inc., priority 2019, dated 2023).
Values joined by “and” are separate entries in the source; they are usually repeats but may differ in a detail not shown here. Identical values can stand only once. Like-named read-outs stand apart in the source and are kept apart here.

What was measured:
[1] = molecular target: T1, ETA receptor (Homo sapiens, UniProt P25101); experiment: Functional potency for ETA receptor; assay type: biochemical; details: rating in words
T1 sequence (P25101 21-427): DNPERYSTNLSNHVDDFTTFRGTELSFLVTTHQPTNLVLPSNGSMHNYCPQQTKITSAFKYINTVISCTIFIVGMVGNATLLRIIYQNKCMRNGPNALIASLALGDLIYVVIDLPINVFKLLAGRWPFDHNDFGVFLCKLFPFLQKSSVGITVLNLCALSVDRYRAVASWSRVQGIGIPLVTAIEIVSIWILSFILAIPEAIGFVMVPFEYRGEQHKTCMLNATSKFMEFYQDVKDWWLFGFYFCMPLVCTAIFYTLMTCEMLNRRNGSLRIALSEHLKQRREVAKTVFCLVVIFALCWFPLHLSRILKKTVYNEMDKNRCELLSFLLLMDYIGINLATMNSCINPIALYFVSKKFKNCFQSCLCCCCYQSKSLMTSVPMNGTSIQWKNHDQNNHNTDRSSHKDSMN
Description: (§1) In the above table, the physicochemical data, e.g., solubility, were obtained following standard protocols known in the field (see, e.g., Reis et al., Mini Rev Med Chem., 2010, 10(11):1071-6; Avdeef et al., Expert Opin Drug Metab Toxicol., 2005, 1(2):325-42; Bharate et al., Comb Chem High Throughput Screen., 2016, 19(6):461-9; and Jain et al., J Pharm Biomed Anal., 2013, 86:11-35); and the biochemical data, i.e., potency for ETA/ETB, were obtained following the protocols known in the field (see, e.g., Kirkby et al., Br J Pharmacol., 2008, 153(6):1105-19; and Maguire et al., Br J Pharmacol., 2014, 171(24):5555-72).

[2] = molecular target: T2, ETB receptor (Homo sapiens, UniProt P24530); experiment: Functional potency for ETB receptor; assay type: biochemical
T2 sequence (P24530 27-442): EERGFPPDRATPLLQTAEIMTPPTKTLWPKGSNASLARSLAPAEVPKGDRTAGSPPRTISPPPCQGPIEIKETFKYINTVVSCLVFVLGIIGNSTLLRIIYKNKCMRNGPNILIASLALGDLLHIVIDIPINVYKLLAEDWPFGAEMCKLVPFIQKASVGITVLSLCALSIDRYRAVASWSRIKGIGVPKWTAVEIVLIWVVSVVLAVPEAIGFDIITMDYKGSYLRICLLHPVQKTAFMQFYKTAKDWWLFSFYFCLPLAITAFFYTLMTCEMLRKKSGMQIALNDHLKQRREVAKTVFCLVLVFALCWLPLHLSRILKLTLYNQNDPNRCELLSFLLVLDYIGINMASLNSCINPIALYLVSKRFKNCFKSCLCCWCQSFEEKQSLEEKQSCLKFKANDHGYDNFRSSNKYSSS
Description: as §1

[3] = system: ETA/ETB receptor; experiment: ETA/ETB selectivity (specificity); assay type: biochemical; details: ETA versus ETB, rating in words
Description: as §1

[4] = Solubility; assay type: physicochemical
Description: as §1

[5] = Stability in solid state; assay type: physicochemical; details: 2 h @ l25° C.
Description: as §1

[6] = LogD; assay type: physicochemical; details: pH 7.4
Description: as §1

[7] = Permeability (PAMPA); assay type: in vitro ADME; details: rating in words
Description: as §1

[8] = system: elevated intraocular pressure (IOP); experiment: Morrison's rat model of glaucoma (elevated IOP); assay type: in vivo, Brown Norway rats; details: topical eye drops 100 μg per dose, five days a week, four weeks
Description: Adult male and female retired breeder Brown Norway rats (approximate age groups of 8 to 11 months) were obtained from Envigo (Indianapolis, Ind.). Baseline IOP measurements and pattern electroretinogram (PERG) amplitudes were collected prior to the surgery for elevation of IOP (to ensure that the IOP and PERG amplitudes were in the expected range of values). IOP was elevated in one eye (left eye) of the rats, while the corresponding right eyes served as contralateral controls. The Morrison method to elevate IOP in rats was carried out by injection of 50 μL of hypertonic saline through the episcleral veins to sclerose the trabecular meshwork. IOP was measured twice a week throughout the entire duration of the experiment. […] After detecting an elevation of IOP for two consecutive days, topical administration of eye drops (20 μL (100 μg) per dose of the tested compounds in the IOP elevated eye) was commenced and carried out for five days a week for a total of four weeks. In the 4th week of treatment, PERG analysis was carried out and rats were sacrificed by an overdose of pentobarbital (Fatal-Plus). Aqueous humor was collected from the rat eyes, frozen and shipped for analysis. Retinal flat mounts were prepared, immunostained with the RGC marker, Brn3a antibody and surviving RGCs were counted in two eccentricities (central and peripheral). For this study, the Morrison's model was used to induce ocular hypertension in adult male retired breeder Brown Norway rats as previously described by Morrison et al., (Morrison J C, Moore […], Gold […], Johnson E C. A rat model of chronic pressure-induced optic nerve damage. Exp Eye Res. 1997; 64(1):85-96). The immunostained retinal flat mounts were obtained to measure the retinal ganglion cell (RGC) counts. To obtain immunostained retinal flat mounts, the animals were euthanized after the treatments and then their eyes were enucleated. The eye cups were fixed overnight at 4° C. in 4% paraformaldehyde (PFA) and retinal flat mounts were prepared for collecting images. The retinal ganglion cell (RGC) counting was conducted using the images of immunostained retinal flat mounts. The images were uploaded to ImageJ, a photo editor designed for biology research (Rasband, 1997-2018) and the labeled retinal ganglion cells were counted manually in two eccentricities (central and peripheral). […] Pattern ERG (PERG) was used to assess the RGC function. […] Briefly, PERG signals were acquired from a DTL-plus electrode placed on the lower part of the corneal surface and the PERG waves were analyzed using the EMWIN software (LKC). The difference between the amplitude of the major positive (P1) and negative (N2) waves were calculated to […] amplitude.

[9] = Pharmacokinetics after topical or oral administration in the rat; assay type: in vivo, Brown Norway rats
Description: After the administrations, the animals (N=2) were euthanized at different time points (e.g. 4 and 8 hours) and tissues were collected for analysis. List of tissues collected include plasma, retina/retinal pigment epithelium (RPE)/choroid, vitreous humor and aqueous humor.

Functional Potency for ETA and ETB Receptors (rating) [1]: High potency
IC50 [2]: 3.48 nM
Specificity (rating) [3]: Low specificity
solubility ([4]; aqueous buffer, pH 7, amorphous form, read-out: Solubility at pH 7): 173 µg/mL and 298 µM
solubility ([4]; ethyl acetate, organic solvent or mixture, read-out: Solubility in Ethyl Acetate): > 10600 µg/mL and > 18400 µM
Solubility in Ethyl Acetate (rating) ([4]; ethyl acetate, rating in words): Good
solubility ([4]; pH 2, simulated gastric fluid, read-out: Solubility at pH 2): 92.5 µg/mL and 160 µM
Stability in Solid State (rating) [5]: unstable
Stability in Solid State, remaining [5]: about 87% remaining/
logD [6]: 2.3
Permeability (rating) [7]: Mid-High
Detection in retina/RPE/choroid ([9]; oral, 50 mg/kg): detectable
Detection in retina/RPE/choroid, aqueous humor and vitreous humor ([9]; topical eye drop 100 μg, 4 and 8 hours post-administration): detected
SMILES: CCCCCS(=O)(=O)N(CCC)CCN1C[C@H](c2ccc3c(c2)OCO3)[C@@H](C(=O)O)[C@@H]1c1ccc(OC)c(F)c1 [A-182086, (2R,3R,4S)-4-(2H-1,3-benzodioxol-5-yl)-2-(3-fluoro-4-methoxyphenyl)-1-[2-(N-propylpentane-1-sulfonamido)ethyl]pyrrolidine-3-carboxylic acid]
RGC function, pattern electroretinogram (PERG) changes [8]: maintained RGC function
Retinal ganglion cell (RGC) counts, peripheral retina [8]: prevented RGC loss
